Laboratory results published in patent publication US11497706B2, “Antiperspirant and deodorant compositions” (The Procter & Gamble Company, priority 2017, dated 2022).
Values after ≈ are worked out from the molar mass of the structure shown. Structures can show the parent of a compound that is named as a salt. Where two headings read alike, the source gives them in different places.

Experiments:
S. epidermidis = test: Tier 1 Anaerobic MIC Assay; assay type: cell-based, Staphylococcus epidermidis (clinical isolate); details: for MIC: Staphylococcus epidermidis, read-out: microbial inhibition concentration (MIC)
From the text: (§1) 1. Tier 1 Anaerobic MIC Assay
(§2) The data in Table 2 above was generated with the following test method. The purpose of this assay is to determine if a compound or formulation has an antimicrobial effect in vitro.
(§3) It is understood that when not specifically noted in this procedure: • a) All materials, reagents and equipment required for this procedure are of appropriate design and condition of cleanliness and/or sterility as determined by their intended use. • b) The operator has been trained in aseptic technique and has been qualified to perform the procedure and accurately interpret the results. • c) All media required for this procedure was manufactured by a reputable commercial source egg. Difco, Merck etc. and has been stored and prepared as per manufacturer's instructions. • d) All routine laboratory controls, including but not limited to, media function and growth promotion tests, verification of sterility and use of positive and negative controls are being conducted.
(§4) Procedure: (All Procedures Performed in Anaerobic Chamber Except where Noted)
(§5) Incubator at 37° C.; 20-200 ul channel pipette; 5-50 ul channel pipette; 1250 ul 8 channel Thermo Scientific Matrix pipette; 96 well plate shaker (located in incubator); Beckman Coulter deep well cap mat #267005; Beckman Coulter deep 96 well plates #267007; Falcon 96 well tissue culture plates #353072; Vortexer; Culture tubes/caps Disposable sterile gloves; Sterile petri dishes; Standard microbiological lab equipment (sterile pipettes, syringes, tips, loops, etc.); Glass bottles/flasks for media; Autoclave; Parafilm; Spectrophotometer.
(§6) • 0.9% or 0.85% saline solution • BHI agar supplemented with 1% Tween 80 • BHI media supplemented with 1% Tween 80 3. Microbial Strains
Staphylococcus epidermidis (clinical isolate)
(§7) Prior to testing streak organisms for isolation on BHI with 1% Tween 80 plates, wrap with parafilm and place in 37° C. incubator. When isolated colonies appear remove one representative colony from each plate and place each in 5 ml of BHI with 1% Tween 80 media. Incubate at 37° C. with shaking overnight. Inoculate 20 ml BHI with 1% Tween 80 (per 96 deep well plate to be tested) with 20 ul of the overnight culture (1-1000 dilution).
(§8) Compounds/formulations to be tested are diluted across a 96 deep well plate as shown below (for a 1% stock solution). 800 ul of 0.85% saline is added to wells A1 and B1 (as these will be the negative and positive control respectively). 800 ul each 1% stock solution+positive control are added to wells C1 through H1. 400 ul 0.85% saline are added to all other wells. 400 ul is then removed from #1 well added to the #2 well and mixed. This is then continued across the plate resulting in a 50% dilution between wells across the plate (this can be easily accomplished with an automatic 8 channel Matrix pipette set to withdraw, dispense and mix).
(§9) In row A of a 96 deep well plate pipette 180 ul of sterile BHI with 1% Tween 80 as a negative growth control. All other wells receive 180 ul of inoculum. From the master plate introduce 20 ul to the corresponding row in the test plate using an 8-channel pipette. Loaded plates are placed on a plate shaker in the 37° C. incubator and incubated overnight. The next day read the O.D. 600 on a plate reader. The MIC is the last well from the right that has no bacterial growth.

C. mucofaciens = test: Tier 1 Anaerobic MIC Assay; assay type: cell-based, Corynebacterium mucofaciens (clinical isolate); details: for MIC: Corynebacterium, read-out: microbial inhibition concentration (MIC)
From the text: as §1, §2, §3, §4, §5, §6
Corynebacterium mucofaciens (clinical isolate)
as §7, §8, §9

[1] = system: two key underarm bacteria strains; test: Raw material microbial inhibition, summary in words; assay type: cell-based; details: C. mucofaciens and S. epidermidis
From the text: The data in Table 2 above was generated with the following test method.

[2] = anaerobic, 37° C. overnight, O.D. 600

Structure (SMILES) | MIC (S. epidermidis; [2]) [µg/mL] | MIC (C. mucofaciens; [2]) [µg/mL] | microbial inhibition concentration (MIC) (S. epidermidis; [2]) [ppm] | microbial inhibition concentration (MIC) (C. mucofaciens; [2]) [ppm] | performance against the bacteria as raw materials [1] | further results
CCCCCCCCC(CO)CCCCCC (stereo not shown) [Hexyl Decanol] |  |  | 3031 | 6062 |  | 
C=CCCCCCCCCC(=O)N[C@@H](Cc1ccccc1)C(=O)O [Sepiwhite] |  |  | 1000 | 2000 | performing well | 
[Cl-].[Na+] [NaCl] |  |  | >25000 | >25000 |  | 
C=CCc1ccc(O)c(OC)c1 [eugenol] | 773 (≈ 4.71 mM) | 773 (≈ 4.71 mM) |  |  | performing well | 
CCCCC(CC)COCC(O)CO (stereo not shown) [Ethylhexyl glycerin] |  |  | 12500 | 12500 |  | 
O=C([O-])[O-].[Ca+2] [calcium carbonate] |  |  | >2500 | >2500 | performing moderately well | 
N=C(N)c1ccc(OCCCCCCOc2ccc(C(=N)N)cc2)cc1 [hexamidine] |  |  |  |  |  | MIC (S. epidermidis): 7 µg/mL (≈ 0.0197 mM); MIC (C. mucofaciens): < 2 µg/mL
[Ca+2].[Cl-].[Cl-] [CaCl] |  |  | >50000 | >50000 |  | 
COC(=O)CCC(=O)OC [dimethyl succinate] | 3060 | 1530 |  |  | performing well | 
CCOC(=O)CC(O)(CC(=O)OCC)C(=O)OCC [triethyl citrate] | 1600 | 1600 |  |  | performing well | 
Cc1cc(CC(C)CC(C)(C)C)n(O)c(=O)c1.NCCO (stereo not shown) [piroctone olamine, 1-Hydroxy-4-methyl-6-(2,4,4-trimethylpentyl)-2-pyridone monoethanolamine salt, reference compound] | 10 | < 5 |  |  | perform particularly well | 

More lines, main results first:

MIC (S. epidermidis; [2]) [µg/mL] | MIC (C. mucofaciens; [2]) [µg/mL] | Structure (SMILES) | microbial inhibition concentration (MIC) (S. epidermidis; [2]) [ppm] | microbial inhibition concentration (MIC) (C. mucofaciens; [2]) [ppm] | performance against the bacteria as raw materials [1] | further results
3120 (≈ 11.1 mM) | 3120 (≈ 11.1 mM) | CCCCC/C=C\C/C=C\CCCCCCCC(=O)O [Linoleic acid] |  |  |  | 
> 59000 | > 59000 | CCCCCCCCCCCCCC(=O)OC(C)C [Isopropyl Myristate] |  |  |  | 
1500 (≈ 9.85 mM) | 1500 (≈ 9.85 mM) | CC(C)=CCCC(C)=CC=O [citral] |  |  | performing well | 
5940 (≈ 26.7 mM) | 47500 (≈ 214 mM) | CC(C)=CCCC(C)=CCCC(C)=CCO [Farnesol] |  |  |  | 
> 49000 | > 49000 | C/C(=C\CO)CCC[C@H](C)CCC[C@H](C)CCCC(C)C [Phytol] |  |  |  | 
1090 (≈ 3.93 mM) | 1090 (≈ 3.93 mM) | CC/C=C\C/C=C\C/C=C\CCCCCCCC(=O)O [linolenic acid] |  |  |  | 
> 49000 | > 49000 | C=CC(C)(O)CCC=C(C)CCC=C(C)C (stereo not shown) [Nerolidol] |  |  |  | 
